Key:
[1] = xn = mol fraction of the nth substance listed; conditions: 298.15 K, 101.3 kPa, Liquid
[2] = heat capacity at constant pressure per volume; xn = mol fraction of the nth substance listed; conditions: 298.15 K, 101.3 kPa, Liquid, Flow calorimetry
[3] = molar heat capacity at constant pressure; conditions: 298.15 K; 101.33 kPa; Liquid; Flow calorimetry
[4] = 298.15 K; 101.33 kPa; Liquid

CCC(C)CO (centres undefined) [2-methyl-1-butanol] + O
Conditions | heat capacity, [2] [J/K/m3] | mass density, [1] [kg/m3]
x1 = 0.000842 | 4172700 | 996.43
x1 = 0.000975 | 4173400 | 996.33
x1 = 0.001072 | 4174000 | 996.28
x1 = 0.001376 | 4175300 | 996.04
x1 = 0.001398 | 4175600 | 996.04
x1 = 0.00154 | 4176300 | 995.95
x1 = 0.002056 | 4179200 | 995.56
x1 = 0.002325 | 4180700 | 995.4
x1 = 0.002361 | 4180800 | 995.38
x1 = 0.002467 | 4181400 | 995.28
x1 = 0.002771 | 4182700 | 995.09
x1 = 0.002868 | 4183400 | 995.02
x1 = 0.002988 | 4184000 | 994.91
x1 = 0.003068 | 4184200 | 994.84
x1 = 0.003107 | 4184500 | 994.81
x1 = 0.003446 | 4186500 | 994.6

CC(C)CO [2-methyl-1-propanol] + O
Conditions | heat capacity, [2] [J/K/m3] | mass density, [1] [kg/m3]
x1 = 0.001575 | 4175200 | 995.99
x1 = 0.00181 | 4176000 | 995.84
x1 = 0.003631 | 4184200 | 994.66
x1 = 0.006044 | 4195700 | 993.15
x1 = 0.009083 | 4209900 | 991.35
x1 = 0.01143 | 4220800 | 989.99
x1 = 0.01647 | 4247000 | 987.23

CC(C)C(C)O (centres undefined) [3-methyl-2-butanol] + O
Conditions | heat capacity, [2] [J/K/m3] | mass density, [1] [kg/m3]
x1 = 0.000786 | 4172900 | 996.49
x1 = 0.001489 | 4177000 | 996.01
x1 = 0.001981 | 4180000 | 995.68
x1 = 0.004452 | 4194900 | 994.09
x1 = 0.005029 | 4198500 | 993.72
x1 = 0.006358 | 4206900 | 992.91
x1 = 0.007481 | 4213800 | 992.25
x1 = 0.008252 | 4218900 | 991.83

CCCC(C)O (centres undefined) [pentan-2-ol]
Conditions | mass density [kg/m3] | molar heat capacity at constant pressure [J/K/mol]
[3] | – | 235.3
[4] | 804.55 | –

CCC(C)O (centres undefined) [butan-2-ol] + O
Conditions | heat capacity, [2] [J/K/m3] | mass density, [1] [kg/m3]
x1 = 0.001648 | 4177000 | 995.99
x1 = 0.00244 | 4181300 | 995.46
x1 = 0.003665 | 4188100 | 994.69
x1 = 0.006146 | 4201900 | 993.17
x1 = 0.006234 | 4202800 | 993.15
x1 = 0.008153 | 4213300 | 991.98
x1 = 0.009049 | 4218100 | 991.43
x1 = 0.01047 | 4226800 | 990.68
x1 = 0.01411 | 4248500 | 988.8
x1 = 0.01461 | 4251800 | 988.51
x1 = 0.01766 | 4270000 | 987

CCC(C)O (centres undefined) [butan-2-ol]
Conditions | mass density [kg/m3] | molar heat capacity at constant pressure [J/K/mol]
[3] | – | 197.8
[4] | 802.07 | –

CCC(O)CC [3-pentanol] + O
Conditions | heat capacity, [2] [J/K/m3] | mass density, [1] [kg/m3]
x1 = 0.000803 | 4173700 | 996.49
x1 = 0.001033 | 4175300 | 996.33
x1 = 0.001252 | 4176900 | 996.18
x1 = 0.001864 | 4181400 | 995.77
x1 = 0.002399 | 4185100 | 995.4
x1 = 0.003282 | 4191500 | 994.83
x1 = 0.005357 | 4206400 | 993.51
x1 = 0.005689 | 4209600 | 993.32
x1 = 0.006773 | 4217300 | 992.61

CC(C)CO [2-methyl-1-propanol]
Conditions | mass density [kg/m3] | molar heat capacity at constant pressure [J/K/mol]
[3] | – | 181.9
[4] | 797.63 | –

CCC(C)(C)O [2-methylbutan-2-ol] + O
Conditions | heat capacity, [2] [J/K/m3] | mass density, [1] [kg/m3]
x1 = 0.00166 | 4180000 | 995.9
x1 = 0.001774 | 4181000 | 995.84
x1 = 0.002795 | 4188600 | 995.15
x1 = 0.005273 | 4207000 | 993.56
x1 = 0.006999 | 4220500 | 992.51
x1 = 0.009307 | 4239300 | 991.15
x1 = 0.01213 | 4263400 | 989.63
x1 = 0.01355 | 4275900 | 988.89

CCCO [propan-1-ol]
Conditions | mass density [kg/m3] | molar heat capacity at constant pressure [J/K/mol]
[3] | – | 144.3
[4] | 799.52 | –

CCC(C)(C)O [2-methylbutan-2-ol]
Conditions | mass density [kg/m3] | molar heat capacity at constant pressure [J/K/mol]
[3] | – | 251.1
[4] | 804.01 | –

CC(C)O [propan-2-ol] + O
Conditions | heat capacity, [2] [J/K/m3] | mass density, [1] [kg/m3]
x1 = 0.001072 | 4172300 | 996.38
x1 = 0.001923 | 4175600 | 995.85
x1 = 0.003078 | 4179900 | 995.16
x1 = 0.00413 | 4183900 | 994.53
x1 = 0.005976 | 4191200 | 993.44
x1 = 0.009312 | 4204200 | 991.51
x1 = 0.01437 | 4225200 | 988.91
x1 = 0.01665 | 4234700 | 987.73

CCCCO [butan-1-ol] + O
Conditions | heat capacity, [2] [J/K/m3] | mass density, [1] [kg/m3]
x1 = 0.001656 | 4176100 | 995.94
x1 = 0.003814 | 4186600 | 994.54
x1 = 0.005524 | 4195100 | 993.48
x1 = 0.006663 | 4200400 | 992.78
x1 = 0.009163 | 4213100 | 991.32
x1 = 0.01415 | 4239900 | 988.57
x1 = 0.01604 | 4251000 | 987.56

CCCO [propan-1-ol] + O
Conditions | heat capacity, [2] [J/K/m3] | mass density, [1] [kg/m3]
x1 = 0.000792 | 4170900 | 996.59
x1 = 0.002096 | 4175200 | 995.84
x1 = 0.002978 | 4178200 | 995.36
x1 = 0.006166 | 4189500 | 993.64
x1 = 0.008272 | 4197000 | 992.56
x1 = 0.01185 | 4209800 | 990.81
x1 = 0.01732 | 4230600 | 988.27
x1 = 0.02089 | 4243100 | 986.68

CC(C)CCO [3-methylbutan-1-ol] + O
Conditions | heat capacity, [2] [J/K/m3] | mass density, [1] [kg/m3]
x1 = 0.000488 | 4170700 | 996.67
x1 = 0.000691 | 4171700 | 996.51
x1 = 0.001002 | 4173400 | 996.29
x1 = 0.001048 | 4173600 | 996.22
x1 = 0.00119 | 4174300 | 996.13
x1 = 0.001204 | 4174400 | 996.13
x1 = 0.001362 | 4175200 | 995.99
x1 = 0.001742 | 4177100 | 995.68
x1 = 0.002039 | 4178600 | 995.47
x1 = 0.002063 | 4178800 | 995.45
x1 = 0.002225 | 4179800 | 995.36

CCCCCO [pentan-1-ol] + O
Conditions | heat capacity, [2] [J/K/m3] | mass density, [1] [kg/m3]
x1 = 0.001069 | 4174500 | 996.21
x1 = 0.001645 | 4177900 | 995.78
x1 = 0.001775 | 4178800 | 995.68
x1 = 0.001916 | 4179400 | 995.57
x1 = 0.002185 | 4181300 | 995.37
x1 = 0.002474 | 4182900 | 995.16
x1 = 0.002743 | 4184600 | 994.96
x1 = 0.003049 | 4186100 | 994.73
x1 = 0.003529 | 4189200 | 994.4

CC(C)C(C)O (centres undefined) [3-methyl-2-butanol]
Conditions | mass density [kg/m3] | molar heat capacity at constant pressure [J/K/mol]
[3] | – | 249.5
[4] | 812.31 | –

CC(C)O [propan-2-ol]
Conditions | mass density [kg/m3] | molar heat capacity at constant pressure [J/K/mol]
[3] | – | 155.2
[4] | 780.72 | –

CCCC(C)O (centres undefined) [pentan-2-ol] + O
Conditions | heat capacity, [2] [J/K/m3] | mass density, [1] [kg/m3]
x1 = 0.001235 | 4176700 | 996.1
x1 = 0.001831 | 4180800 | 995.66
x1 = 0.002163 | 4182900 | 995.4
x1 = 0.002785 | 4187300 | 994.95
x1 = 0.003519 | 4192400 | 994.4
x1 = 0.004937 | 4202200 | 993.42
x1 = 0.0059 | 4209100 | 992.73
x1 = 0.00695 | 4217100 | 992.05

CCC(O)CC [3-pentanol]
Conditions | mass density [kg/m3] | molar heat capacity at constant pressure [J/K/mol]
[3] | – | 254.6
[4] | 815.3 | –

CCC(C)CO (centres undefined) [2-methyl-1-butanol]
Conditions | mass density [kg/m3] | molar heat capacity at constant pressure [J/K/mol]
[3] | – | 215
[4] | 814.54 | –

CC(C)(C)CO [2,2-dimethyl-1-propanol] + O
Conditions | heat capacity, [2] [J/K/m3] | mass density, [1] [kg/m3]
x1 = 0.001702 | 4176200 | 995.77
x1 = 0.002268 | 4178900 | 995.36
x1 = 0.002665 | 4181000 | 995.08
x1 = 0.003113 | 4183100 | 994.74
x1 = 0.003563 | 4185300 | 994.42
x1 = 0.004331 | 4189100 | 993.87
x1 = 0.004832 | 4191800 | 993.52

CCCCO [butan-1-ol]
Conditions | mass density [kg/m3] | molar heat capacity at constant pressure [J/K/mol]
[3] | – | 177.1
[4] | 805.62 | –

CC(C)CCO [3-methylbutan-1-ol]
Conditions | mass density [kg/m3] | molar heat capacity at constant pressure [J/K/mol]
[3] | – | 209.3
[4] | 804.18 | –

CCCCCO [pentan-1-ol]
Conditions | mass density [kg/m3] | molar heat capacity at constant pressure [J/K/mol]
[3] | – | 208.8
[4] | 810.68 | –

CC(C)(C)O [2-methylpropan-2-ol] + O
Conditions | heat capacity, [2] [J/K/m3] | mass density, [1] [kg/m3]
x1 = 0.000883 | 4173400 | 996.41
x1 = 0.001796 | 4178600 | 995.74
x1 = 0.002923 | 4185200 | 994.98
x1 = 0.004051 | 4192000 | 994.22
x1 = 0.006409 | 4206500 | 992.64
x1 = 0.00867 | 4220900 | 991.22
x1 = 0.01153 | 4239100 | 989.43
x1 = 0.01716 | 4276400 | 986.35

Reference: the NIST ThermoML archive (doi:10.1021/je049738c)
